Data as given in PubChem BioAssay (NCI).
“And” between values parts separate entries of the source, which are not always exact repeats. Equal values may be shown once.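 A five-concentration, 48-hour dose response in 96-well plates underlies each endpoint, interpolated linearly between surrounding concentrations. At the GI50, growth is halved. TGI denotes the concentration required for complete inhibition of growth.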

Tests used:
Assay in all cases: NCI tumour cell line growth inhibition, 48 h
[1] = test system: SK-MEL-28 melanoma
[2] = test system: COLO 205 colon
[3] = test system: 786-0 renal
[4] = test system: SK-OV-3 ovarian
[5] = test system: OVCAR-5 ovarian
[6] = test system: IGROV1 ovarian
[7] = test system: OVCAR-4 ovarian
[8] = test system: MALME-3M melanoma
[9] = test system: NCI/ADR-RES ovarian
[10] = test system: DU-145 prostate

Compound	GI50 [1]	TGI [1]	GI50 [2]	TGI [2]	GI50 [3]	TGI [3]	GI50 [4]	TGI [4]	GI50 [5]	TGI [5]	GI50 [6]	TGI [6]	GI50 [7]	TGI [7]	GI50 [8]	TGI [8]	GI50 [9]	TGI [9]	GI50 [10]	TGI [10]
O=C(COc1ccccc1)NNc1ccccc1	> 300 µM	> 300 µM	17.6 µM and 11.9 µM	> 86.6 µM and 197 µM	> 68.5 µM and 66.1 µM	> 300 µM	254 µM	> 300 µM	144 µM	> 300 µM	> 300 µM	> 300 µM	> 300 µM	> 300 µM	66.9 µM and 101 µM	> 300 µM	58.1 µM and 63.3 µM	> 300 µM	> 300 µM	> 300 µM
COc1cc(-n2cc(-c3ccc(Cl)cc3)n(-c3ccccc3)c2=O)cc(OC)c1OC	21.4 µM	> 100 µM	11.7 µM	44.2 µM	30.7 µM	> 100 µM	30.8 µM	> 90.7 µM	39.4 µM	> 100 µM	7.87 µM	36.2 µM	17.9 µM	> 100 µM	21.2 µM	75.2 µM	21.5 µM	> 100 µM	43.6 µM	> 100 µM
COc1ccc(C(=O)/C=C/c2cc(-c3ccc(OC)c(OC)c3)n[nH]2)cc1OC	1.82 µM	4.82 µM	1.55 µM	3.1 µM	1.81 µM	5.14 µM	3.13 µM	33.3 µM	1.76 µM	5.24 µM	3.13 µM	53.8 µM	1.92 µM	8.15 µM	2.59 µM	6.21 µM	3.43 µM	33.1 µM	1.64 µM	4.8 µM
COc1ccc(Nc2ncc(I)c(NCCCNC(=O)C3CCC3)n2)cc1	18 µM	> 100 µM	3.07 µM	12.2 µM	5.58 µM	29.2 µM	4.81 µM	25.5 µM	8.28 µM	68.5 µM	2.39 µM	16.6 µM	9.31 µM	64.2 µM	7.39 µM	> 100 µM	12 µM	> 100 µM	9.21 µM	> 100 µM
CCNCC(=O)Nc1ccc2c(c1)C(=O)c1ccc(NC(=O)CNCC)cc1C2=O		19.2 µM		3.69 µM		7.92 µM		9.48 µM		10.7 µM		19.5 µM		2.24 µM		33 µM		28.3 µM		11.7 µM
NC(=O)c1cn(C2CC(O)C(CO)O2)c2ncnc(N)c12 (centres undefined)	7.28 µM	> 83.1 µM	5.01 µM	24 µM	4.15 µM	18.9 µM	1.68 µM	43 µM	9.81 µM	> 71.6 µM	0.749 µM	5.16 µM	6.26 µM	> 100 µM	0.763 µM		2 µM	24.2 µM	1.41 µM	10.4 µM
CCOC(=O)c1ccc(N2NC(=O)/C(=C/c3ccc([N+](=O)[O-])o3)C2=O)cc1	18.6 µM	36 µM	4.06 µM	9.46 µM	19.1 µM	37.3 µM	> 39.4 µM	> 54.1 µM	19 µM	40.7 µM	20 µM	41.4 µM	17 µM	30.9 µM	15.6 µM	35.1 µM	25.9 µM	> 71.8 µM	18 µM	32.3 µM
CCCN(CCC)c1ccc(/C=N/NC(=O)c2cccnc2)c(C)c1	16.4 µM	43.1 µM	14.5 µM	27.6 µM	18.6 µM	42.2 µM	18.1 µM	46.9 µM	13.1 µM	33.8 µM	16 µM	39.7 µM	15.3 µM	78.5 µM	13 µM	28.2 µM	15.2 µM	51.5 µM	16.4 µM	43.9 µM
CCOc1ccccc1/C=N\N=C(N/N=C/c1ccccc1OCC)N/N=C/c1ccccc1OCC	4.38 µM	> 100 µM	1.43 µM	2.98 µM	2.71 µM	> 100 µM	1.65 µM	6.15 µM	2.52 µM	> 100 µM	3.04 µM	> 100 µM	1.17 µM	> 100 µM	5.69 µM	> 100 µM	1.7 µM	> 100 µM	2.45 µM	> 100 µM
CN1CCN(C)C1c1ccc(C2N(C)CCN2C)cc1	67.8 µM	> 100 µM	23 µM	65.2 µM	> 100 µM	> 100 µM	> 100 µM	> 100 µM	86.4 µM	> 100 µM	> 100 µM	> 100 µM	38.3 µM	> 100 µM	> 100 µM	> 100 µM	90.1 µM	> 100 µM	30.2 µM	> 100 µM
COC(=O)[C@H](Cc1cn(C)cn1)NC(=O)[C@H](CC(C)C)NC(=O)Nc1cc(C(F)(F)F)cc(C(F)(F)F)c1	8 µM	> 10 µM	> 10 µM	> 10 µM	> 10 µM	> 10 µM	> 10 µM	> 10 µM	> 10 µM	> 10 µM	4.63 µM	> 10 µM	> 10 µM	> 10 µM	> 10 µM	> 10 µM	> 10 µM	> 10 µM	> 10 µM	> 10 µM
CC1(C)C(=O)/C=C\C(=O)C(C)(C)C2=CC=C(O2)C(C)(C)C(=O)C(Br)C(Br)C(=O)C(C)(C)C2=CC=C1O2 (centres undefined)		> 100 µM		> 100 µM		> 100 µM		> 100 µM		> 100 µM		> 85.6 µM		> 100 µM		> 100 µM		90.2 µM		> 100 µM
CC(C)[C@@]12C[C@@H](OC(=O)C3CO3)[C@@](C)(O1)[C@@H]1CC[C@@H](C)[C@H]1[C@@H]2OC(=O)/C=C/c1ccccc1 (some centres undefined)	18.4 µM	37.9 µM	27.8 µM	> 100 µM	14 µM	29.5 µM	18.6 µM	46.8 µM	19.3 µM	47.9 µM	24.3 µM	87.2 µM	13.2 µM	26.6 µM	13 µM	27.4 µM	10.8 µM	37.4 µM	26.4 µM	72.9 µM
Nc1nc(Sc2ccc([N+](=O)[O-])c3nonc23)c2ncn(C3OC(CO)C(O)C3O)c2n1 (centres undefined)	11.7 µM	26.6 µM	2.59 µM	14.4 µM	0.766 µM	14.2 µM	0.651 µM	14.5 µM	1.07 µM	13.1 µM	2.58 µM	24.2 µM	1.89 µM	17.8 µM	9.8 µM	> 42.1 µM	0.47 µM	> 73.2 µM	0.554 µM	27.3 µM
O=C1OC2(c3ccc(O)cc3Oc3cc(O)ccc32)c2cccc3cccc1c23	17.2 µM	34.3 µM	17.2 µM	33.2 µM	27 µM	81.3 µM	34 µM	> 100 µM	17.2 µM	40.7 µM	19.1 µM	57.4 µM	16.1 µM	34.4 µM	20.5 µM	54.7 µM	31.7 µM	> 100 µM	18.9 µM	36.9 µM
COc1cc2c(/C=C3\C(=O)N(C)c4ccccc43)c[nH]c2cc1C	> 22.4 µM	> 100 µM	1.58 µM	> 100 µM	4.43 µM	> 59.6 µM	8.35 µM	> 100 µM	7.94 µM	> 63.9 µM	7.87 µM	> 69.6 µM	> 100 µM	> 100 µM	1 µM	> 53.9 µM	0.65 µM	23.3 µM	6.77 µM	> 66.3 µM
O=S(O)O.O=S(O)O.[Co].[NH2-].[NH2-].[NH2-].[NH2-]	> 100 µM	> 100 µM	> 100 µM	> 100 µM	> 100 µM	> 100 µM	> 100 µM	> 100 µM	> 100 µM	> 100 µM	> 100 µM	> 100 µM	> 100 µM	> 100 µM	> 100 µM	> 100 µM	> 100 µM	> 100 µM	> 100 µM	> 100 µM
